The experiment addresses 5-hydroxytryptamine receptor 5A (Homo sapiens, UniProt P47898). The experiment is described as follows: Binding Inhibition Assay: A solution of the compound to be tested and 100 μM 5-CT (5-carboxamidetriptamine) in DMSO was added to a 96-well plate at 2 μl/well, suspended in an incubation buffer, and a membrane from HEK293 cells for forced expressions of a human 5-HT5A receptor prepared at 200 ug/ml was added at 100 μl/well. After incubation at room temperature for 15 minutes, a [3H]5-CT solution (2 nM [3H]5-CT, incubation buffer) was added thereto at 100 μl/well.Separately, 100 μl of the solution was distributed into a liquid scintillation vial, and 2 ml of Aquasol II (registered trademark) was added thereto, followed by stirring. Then, radioactivity was measured by a liquid scintillation counter. It was incubated at 37C. for 60 minutes. The reaction mixture was sucked into 96-well GF/C filter plate that had been pre-treated with 0.2% polyethyleneimine, and washed six times with an ice-cooled, 50 mM Tris (pH 7.5) buffer. The GF/C filter plate was dried. It is filed as cell membranes.

Chain of 5-hydroxytryptamine receptor 5A (P47898 whole entry): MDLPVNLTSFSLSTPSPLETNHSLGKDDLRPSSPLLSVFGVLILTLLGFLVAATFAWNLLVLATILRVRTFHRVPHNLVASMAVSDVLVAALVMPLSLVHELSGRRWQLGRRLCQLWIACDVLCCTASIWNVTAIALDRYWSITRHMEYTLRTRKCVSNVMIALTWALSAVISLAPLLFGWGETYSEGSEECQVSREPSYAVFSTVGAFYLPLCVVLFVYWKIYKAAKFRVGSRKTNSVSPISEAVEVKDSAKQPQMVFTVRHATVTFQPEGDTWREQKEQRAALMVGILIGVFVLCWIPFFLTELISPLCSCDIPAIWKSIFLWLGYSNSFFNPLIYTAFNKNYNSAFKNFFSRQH

For `NC(N)=NC(=O)c1ccc2c(C(F)F)cnc(-c3c(F)cccc3F)c2c1`, the Ki (in general, a dissociation constant, usually derived from enzyme kinetics or from competition with a known ligand) is 4.6 nM.

These data come from ChEMBL document CHEMBL3638868, “Nitrogenous-ring acylguanidine derivative” (2014).
